In PubChem BioAssay AID256 (DTP/NCI, 2004):
Where “and” joins values, the source holds several entries; their conditions need not be identical. Equal values may be shown once. Toxic doses and inconclusive results are not listed. The calls were made as follows: active = survival T/C of 150% or more; inactive = T/C below 125% in these data.

Tested on: CD2F1 mice, L1210 leukemia ip, survival T/C
Experiment: NCI In Vivo Anticancer Drug Screen. Data for tumor model L1210 Leukemia (intraperitoneal) in CD2F1 (CDF1) mice
Conditions: endpoint: mean survival time, higher = longer survival
Method in brief: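 Mice carrying a transplanted tumor received test compound or vehicle alone. The value is the measurement in the treated group divided by that in the vehicle-treated control group.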

[1] = dose: 100.0 mg/kg/injection, schedule: Q01DX009 (ip), vehicle: saline with Tween-80
[2] = dose: 100.0 mg/kg/injection, schedule: Q04DX003 (ip), vehicle: saline with Tween-80
[3] = dose: 200.0 mg/kg/injection, schedule: Q01DX009 (ip), vehicle: saline with Tween-80
[4] = dose: 200.0 mg/kg/injection, schedule: Q04DX003 (ip), vehicle: saline with Tween-80
[5] = dose: 400.0 mg/kg/injection, schedule: Q01DX009 (ip), vehicle: saline with Tween-80
[6] = dose: 400.0 mg/kg/injection, schedule: Q04DX003 (ip), vehicle: saline with Tween-80
[7] = dose: 100.0 mg/kg/injection, schedule: Q01DX001 (ip), vehicle: saline
[8] = dose: 200.0 mg/kg/injection, schedule: Q01DX001 (ip), vehicle: saline
[9] = dose: 400.0 mg/kg/injection, schedule: Q01DX001 (ip), vehicle: saline
[10] = dose: 75.0 mg/kg/injection, schedule: Q01DX001 (ip), vehicle: saline
[11] = dose: 100.0 mg/kg/injection, schedule: Q01DX001 (ip), vehicle: saline with Tween-80
[12] = dose: 200.0 mg/kg/injection, schedule: Q01DX001 (ip), vehicle: saline with Tween-80
[13] = dose: 400.0 mg/kg/injection, schedule: Q01DX001 (ip), vehicle: saline with Tween-80
[14] = dose: 150.0 mg/kg/injection, schedule: Q01DX001 (ip), vehicle: saline
[15] = dose: 100.0 mg/kg/injection, schedule: Q04DX003 (ip), vehicle: saline

Measured: T/C

O=C1CCCC1(c1ccccc1)c1ccccc1
inactive: [1] 101 % of control | [2] 91 % of control | [3] 101 % of control | [4] 91 % of control | [5] 95 % of control | [6] 94 % of control

O=C(OC1C=CCC=C1)c1cc([N+](=O)[O-])cc([N+](=O)[O-])c1
inactive: dose: 100.0 mg/kg/injection, schedule: Q01DX009 (ip), vehicle: other 101 % of control | dose: 200.0 mg/kg/injection, schedule: Q01DX009 (ip), vehicle: other 95 % of control | dose: 400.0 mg/kg/injection, schedule: Q01DX009 (ip), vehicle: other 93 % of control

CN(C(=O)Nc1cccc([N+](=O)[O-])c1)c1ccccc1
inactive: [7] 102 % of control | [8] 98 % of control | [9] 98 % of control

N=c1c2ccn(C3OC(CO)C(O)C3O)c2ncn1N (centres undefined)
inactive: dose: 12.5 mg/kg/injection, schedule: Q01DX005 (ip), vehicle: water 115 % of control | dose: 25.0 mg/kg/injection, schedule: Q01DX005 (ip), vehicle: water 110 % of control | dose: 50.0 mg/kg/injection, schedule: Q01DX005 (ip), vehicle: water 115 % of control and 116 % of control | dose: 100.0 mg/kg/injection, schedule: Q01DX005 (ip), vehicle: water 94 % of control

CC(=O)N(O)c1ccc2c(c1)Cc1ccccc1-2
inactive: [1] 98 % of control | [3] 101 % of control | [5] 101 % of control

COc1cc2c(cc1Oc1c(O)c(OC)cc3c1C(C)N(C)CC3)C(C)N(C)CC2 (centres undefined)
inactive: [10] 101 % of control

O=C(Cc1ccc([N+](=O)[O-])cc1)c1ccc(O)cc1O
inactive: dose: 100.0 mg/kg/injection, schedule: Q04DX003 (ip), vehicle: Klucel (hydroxypropylcellulose) (HPC) 96 % of control | dose: 200.0 mg/kg/injection, schedule: Q04DX003 (ip), vehicle: Klucel (hydroxypropylcellulose) (HPC) 98 % of control | dose: 400.0 mg/kg/injection, schedule: Q04DX003 (ip), vehicle: Klucel (hydroxypropylcellulose) (HPC) 103 % of control

C/C(=N/Nc1ccccc1)c1cccs1
inactive: [11] 102 % of control | [12] 102 % of control | [13] 94 % of control

NCCCC(NN)C(=O)O (centres undefined)
inactive: dose: 7.5 mg/kg/injection, schedule: Q01DX009 (ip), vehicle: saline 100 % of control | dose: 15.0 mg/kg/injection, schedule: Q01DX009 (ip), vehicle: saline 97 % of control | dose: 30.0 mg/kg/injection, schedule: Q01DX009 (ip), vehicle: saline 94 % of control

Nc1nc2c(ncn2C2OC(COC(=O)Oc3ccccc3)C(O)C2O)c(=O)[nH]1 (centres undefined)
inactive: dose: 50.0 mg/kg/injection, schedule: Q01DX009 (ip), vehicle: Klucel (hydroxypropylcellulose) (HPC) 107 % of control | dose: 100.0 mg/kg/injection, schedule: Q01DX009 (ip), vehicle: Klucel (hydroxypropylcellulose) (HPC) 96 % of control | dose: 200.0 mg/kg/injection, schedule: Q01DX009 (ip), vehicle: Klucel (hydroxypropylcellulose) (HPC) 92 % of control

NC1(C(=O)O)CCCC1.[Pd]
inactive: [7] 100 % of control | [8] 96 % of control

OCCOc1ccc2ccccc2c1
inactive: [11] 100 % of control | dose: 100.0 mg/kg/injection, schedule: Q04DX003 (ip), vehicle: saline + alcohol 97 % of control | [12] 108 % of control | dose: 200.0 mg/kg/injection, schedule: Q04DX003 (ip), vehicle: saline + alcohol 95 % of control | [13] 103 % of control | dose: 400.0 mg/kg/injection, schedule: Q04DX003 (ip), vehicle: saline + alcohol 91 % of control

CN(C)CCC(=O)c1ccco1
inactive: dose: 25.0 mg/kg/injection, schedule: Q01DX001 (ip), vehicle: saline 104 % of control | dose: 50.0 mg/kg/injection, schedule: Q01DX001 (ip), vehicle: saline 95 % of control | [7] 97 % of control and 103 % of control

CCCCCCCCCCCCCCCC(=O)N1CC[N+](C)(CC2=CC3(Cl)C(Cl)=C(Cl)C2(Cl)C3(Cl)Cl)CC1 (centres undefined)
inactive: [10] 93 % of control | [14] 100 % of control

CN(C)C(=NC#N)N(C)C
inactive: dose: 100.0 mg/kg/injection, schedule: Q01DX009 (ip), vehicle: saline 102 % of control | [15] 100 % of control | dose: 200.0 mg/kg/injection, schedule: Q01DX009 (ip), vehicle: saline 96 % of control | dose: 200.0 mg/kg/injection, schedule: Q04DX003 (ip), vehicle: saline 95 % of control | dose: 400.0 mg/kg/injection, schedule: Q01DX009 (ip), vehicle: saline 96 % of control | dose: 400.0 mg/kg/injection, schedule: Q04DX003 (ip), vehicle: saline 97 % of control

COc1ccc(/C=C/c2cc[n+](C)cc2)cc1
inactive: dose: 12.5 mg/kg/injection, schedule: Q01DX009 (ip), vehicle: saline 102 % of control | dose: 25.0 mg/kg/injection, schedule: Q01DX009 (ip), vehicle: saline 95 % of control

CCNCc1ccc2c(c1)OCO2
inactive: [10] 101 % of control | [14] 101 % of control | dose: 300.0 mg/kg/injection, schedule: Q01DX001 (ip), vehicle: saline 103 % of control

O=C(O)CSc1ccn(Cc2ccccc2)c1
inactive: [1] 94 % of control | [2] 106 % of control | [3] 88 % of control | [4] 98 % of control | [5] 88 % of control | [6] 98 % of control

COc1ccc(C(=C(CC(=O)O)C(=O)O)c2ccc(OC)cc2)cc1
inactive: [7] 98 % of control | [8] 98 % of control | [9] 101 % of control

COc1ccc2c3c1OC1C(=O)C4CC5(c6c(O)ccc(O)c64)C(C2)N(C)CCC315 (centres undefined)
inactive: [4] 86 % of control | [6] 86 % of control

CC1Cc2c(N)cccc2C1=O (centres undefined)
inactive: [11] 98 % of control | [12] 87 % of control | [13] 91 % of control

O=[N+]([O-])O.[Er]
inactive: dose: 25.0 mg/kg/injection, schedule: Q04DX003 (ip), vehicle: saline 96 % of control | dose: 50.0 mg/kg/injection, schedule: Q04DX003 (ip), vehicle: saline 87 % of control | [15] 87 % of control

O=[N+]([O-])c1cc(S(=O)(=O)c2ccc(N3CCCCC3)c([N+](=O)[O-])c2)ccc1N1CCCCC1
inactive: [1] 91 % of control | [3] 97 % of control | [5] 95 % of control

CC(=O)Nc1cccc(OCCCOc2cccc([N+](=O)[O-])c2)c1
inactive: [2] 95 % of control | [4] 95 % of control | [6] 92 % of control
